According to US8895561B2, “Compounds and methods for treating candidiasis and aspergillus infections” (Cellceutix Corporation, priority 2012, dated 2014):
Converted amounts (≈) assume the structure as drawn.

Key:
Format in all cases: cell-based
[1] = system: C. albicans GDH2346 hyphal biofilm; assay: Candida IC50 in the hyphal state / hyphal biofilm, MTS viability assay; conditions: 2-day hyphal biofilm cultures; for IC50: Candida albicans, 48 h, read-out: Anti-C. albicans GDH2346 Hyphal (IC50)
Description: Candida IC50s were determined by OD600 and fluorescence from vegetative cells and by MTS viability assay in the hyphal state. MICs were determined using a broth microdilution assay under standard CLSI conditions Bacteria strains: E. coli 25922 (EC), S. aureus 27660 (SA), E. faecalis 29212 (EF), P. aeruginosa 10145 (PA), and K. pneumoniae 13883 (KP). Cytotoxicity (EC50) was determined against mouse 3T3 fibroblasts, human transformed liver HepG2 cells, and human oral keratinocyte cell line, OKF6/TERT using an MTS viability assay. Candida IC50s<10 μg/mL, MICs<5 μg/mL and cytotoxicity EC50s>100 μM are indicated in green. MICs>5 μg/mL and cytotoxicity EC50s<100 μM are indicated in red. To form the biofilm, yeast were grown in RPMI/MOPS, 0.4% sucrose pH7.4 media supplemented with 10% FBS in tissue culture-treated flat bottom 96 well plates for 48 hours. The filamentous yeast cultures were then vigorously washed to remove any non-filamentous, non-attached yeast. The remaining attached filamentous biofilm yeast were incubated in saline containing serially diluted compounds for 24 hours. The cultures were aspirated to remove compound, rinsed and overlayed with RPMI/MOPS, 0.4% sucrose pH7.4 media. Biofilm viability was measured using a cell proliferation assay (CellTiter96 Aqueous Kit from Promega) and IC50s were determined using Prism GraphPad software (nonlinear fit, Table 3).

C. albicans GDH2346 [2] = assay: Candida IC50, vegetative cells, by OD600 and fluorescence; conditions: vegetative cultures; for IC50: Candida albicans, GDH2346, read-out: Anti-C. albicans GDH2346 Vegetative (IC50)
Description: Candida IC50s were determined by OD600 and fluorescence from vegetative cells and by MTS viability assay in the hyphal state. MICs were determined using a broth microdilution assay under standard CLSI conditions Bacteria strains: E. coli 25922 (EC), S. aureus 27660 (SA), E. faecalis 29212 (EF), P. aeruginosa 10145 (PA), and K. pneumoniae 13883 (KP). Cytotoxicity (EC50) was determined against mouse 3T3 fibroblasts, human transformed liver HepG2 cells, and human oral keratinocyte cell line, OKF6/TERT using an MTS viability assay. Candida IC50s<10 μg/mL, MICs<5 μg/mL and cytotoxicity EC50s>100 μM are indicated in green. MICs>5 μg/mL and cytotoxicity EC50s<100 μM are indicated in red. Candida IC50s (CA) were determined by OD600 and fluorescence from vegetative cells. MICs were determined using a broth microdilution assay under standard CLSI conditions Bacteria strains: E. coli 25922 (EC), S. aureus 27660 (SA), E. faecalis 29212 (EF), P. aeruginosa 10145 (PA), and K. pneumoniae 13883 (KP). Cytotoxicity (EC50) was determined against mouse 3T3 fibroblasts and human transformed liver HepG2 cells using an MTS viability assay. For determination of anti-Candida IC50s, the method was modified by using RPMI/MOPS buffer pH 6.3 and by addition of FDGlu, a substrate for the yeast enzyme exoglucanase which is secreted during cell growth. This provides a fluorescent readout for cell growth which was used in addition to the traditional optical density measure of growth. OD600 and fluorescence were determined at 24 and 48 hours and the average of all 4 reads was used for the final IC50 determination.

C. albicans GDH2346 [3] = assay: Candida MIC, CLSI M27-A3; conditions: Table 5; for MIC: Candida albicans, GDH2346, read-out: MIC C. albicans
Description: (§1) Candida MIC assays were determined in accordance with CLSI guidelines M27-A3 using a clinically isolated C. albicans strain, GDH2346.50% human serum was added to determine activity in the presence of serum.

S. salivarius = assay: Commensal bacteria MIC, broth microdilution; conditions: for MIC: Streptococcus salivarius
Description: (§2) Bacterial MICs were determined using a broth microdilution assay under standard
(§3) CLSI conditions Bacteria strains: clinical isolates; yeast strains: C. dubliniensis (NCPF3949), C. glabrata (ATCC 90030), C. krusei (ATCC 6258), C. parapsilosis (ATCC 22019), and C. tropicalis (ATCC 750). Cytotoxicity (EC50) was determined against mouse 3T3 fibroblasts, human transformed liver HepG2 cells, and human oral keratinocyte cell line, OKF6/TERT using an MTS viability assay.

A. viscosis = assay: Commensal bacteria MIC, broth microdilution
Description: as §2, §3

C. krusei (ATCC 6258) = assay: Yeast MIC; conditions: for MIC: Pichia kudriavzevii, ATCC6258
Description: as §1, §3

C. glabrata (ATCC 90030) = assay: Yeast MIC; conditions: Table 5; for MIC: Nakaseomyces glabratus, ATCC90030, read-out: MIC C. glabrata
Description: as §1, §3

[4] = system: C. dubliniensis (NCPF3949); assay: Yeast MIC; conditions: Table 5; for MIC: Candida dubliniensis, NCPF3949, read-out: MIC C. dubliniensis
Description: as §1, §3

[5] = system: C. parapsilosis (ATCC 22019); assay: Yeast MIC; conditions: for MIC: Lodderomyces parapsilosis, ATCC22019
Description: as §1, §3

C. tropicalis (ATCC 750) = assay: Yeast MIC; conditions: for MIC: Candida tropicalis, ATCC750
Description: as §1, §3

| IC50 [1] [mg/L] | IC50 (C. albicans GDH2346 [2]) [mg/L] | MIC (C. albicans GDH2346 [3]) [mg/L] | MIC (S. salivarius) [mg/L] | MIC (A. viscosis) [mg/L] | MIC (C. krusei (ATCC 6258)) [mg/L] | MIC (C. glabrata (ATCC 90030)) [mg/L] | MIC [4] [mg/L] | MIC [5] [mg/L] | MIC (C. tropicalis (ATCC 750)) [mg/L] | MIC C. albicans (C. albicans GDH2346 [3]) [mg/L] | MIC S. salivarius (S. salivarius) [mg/L] | MIC A. viscosis (A. viscosis) [mg/L] | MIC C. krusei (C. krusei (ATCC 6258)) [mg/L] | MIC C. glabrata (C. glabrata (ATCC 90030)) [mg/L] | MIC C. dubliniensis [4] [mg/L] | MIC C. parapsilosis [5] [mg/L] | MIC C. tropicalis (C. tropicalis (ATCC 750)) [mg/L] | Anti-C. albicans GDH2346 Vegetative (IC50) (C. albicans GDH2346 [2]) [mg/L] | Anti-C. albicans GDH2346 Hyphal (IC50) [1] [mg/L] | Structure (SMILES) |
| --- | --- | --- | --- | --- | --- | --- | --- | --- | --- | --- | --- | --- | --- | --- | --- | --- | --- | --- | --- | --- |
| 11 (≈ 21.1 µM) | 4.88 (≈ 9.34 µM) |  |  |  |  |  |  |  |  |  |  |  |  |  |  |  |  |  |  | NCCc1cc(Br)cc(C#Cc2cccc(C#Cc3cc(Br)cc(CCN)c3)c2)c1 [Compound 164] |
| 1 (≈ 2.46 µM) | 1.09 (≈ 2.68 µM) | 2 (≈ 4.92 µM) | 8 (≈ 19.7 µM) | 4 (≈ 9.84 µM) | 2 (≈ 4.92 µM) | 2 (≈ 4.92 µM) | 2 (≈ 4.92 µM) | 2 (≈ 4.92 µM) | 0.5 (≈ 1.23 µM) |  |  |  |  |  |  |  |  |  |  | N=C(N)NCCc1cccc(-c2ccc(-c3cccc(CCNC(=N)N)c3)s2)c1 [Compound 185] |
| 1.4 (≈ 3.5 µM) | 1.03 (≈ 2.57 µM) | 2 (≈ 4.99 µM) | 8 (≈ 20 µM) | 4 (≈ 9.99 µM) | 2 (≈ 4.99 µM) | 2 (≈ 4.99 µM) | 2 (≈ 4.99 µM) | 2 (≈ 4.99 µM) | 0.5 (≈ 1.25 µM) |  |  |  |  |  |  |  |  |  |  | N=C(N)NCCc1cccc(-c2ccc(-c3cccc(CCNC(=N)N)c3)cc2)c1 [Compound 186] |
|  |  |  |  |  |  |  |  |  |  | 2 (≈ 5.12 µM) | 32 (≈ 81.9 µM) | 8 (≈ 20.5 µM) | 4 (≈ 10.2 µM) | 4 (≈ 10.2 µM) | 4 (≈ 10.2 µM) | 4 (≈ 10.2 µM) | 0.5 (≈ 1.28 µM) | 2.20 |  | N=C(N)NCCc1cccc(-c2ccc(-c3cccc(CCNC(=N)N)c3)o2)c1 [Compound 187] |
|  |  |  |  |  |  |  |  |  |  | 2 (≈ 4.91 µM) | 64 (≈ 157 µM) | 16 (≈ 39.3 µM) | 4 (≈ 9.81 µM) | 4 (≈ 9.81 µM) | 4 (≈ 9.81 µM) | 4 (≈ 9.81 µM) | 0.5 (≈ 1.23 µM) | 2.08 | 2.22 | N=C(N)NCCc1cccc(-c2cnc(-c3cccc(CCNC(=N)N)c3)s2)c1 [Compound 188] |
